The values below come from US20210369720A1, “SYNERGISTIC COMPOSITION HAVING NEUROPROTECTIVE PROPERTIES AND METHODS OF USE THEREOF” (Rutgers, The State University of New Jersey, priority 2018, published 2021).

The structures appear in SMILES notation.

One assay concerns GFAP. In words: Immunohistochemical staining of GFAP in the cortex, Syn^Tg mice. To be noted: EHT 12 mg/kg/day and/or caffeine 50 mg/kg/day until six months of age. It counts as in vivo. An excerpt: Neuroinflammation is one of the neuropathological features of PD and models of α-synucleinopathy including Syn^Tg mice (Lee K W, et al. (2011) Enhanced phosphatase activity attenuates alpha-synucleinopathy in a mouse model. J Neurosci 31(19):6963-6971).
Thy1-α-synuclein transgenic mice (Syn^Tg) on BDF1 background overexpressing human wild-type α-synuclein under the control of the Thy1 promoter were maintained by mating heterozygous transgenic females with WT BDF1 males (Rockenstein E, et al. (2002) Differential neuropathological alterations in transgenic mice expressing alpha-synuclein from the platelet-derived growth factor and Thy-1 promoters. J Neurosci Res 68(5):568-578). BDF1 mice (mixed C57BL/6-DBA/2) were generated every three months by mating female C57BL/6 (The Jackson Laboratory) and male DBA/2 mice (Charles River). Experiments were performed with male transgenic mice and their WT littermates. […] Wild-type littermates received regular water and control chow. […] Mice were weighed and their food and water intake was quantified weekly. […]
(§1) Vectastain elite ABC kit (Vector Laboratories, Burlingame, Calif.) and 3,3′-diaminobenzidine (Sigma-Aldrich) were used for amplifying and color development. […] For other stains, the whole microscopic field was analyzed. For p-α-Syn stains in the cortex, four matching regions in each of two sections per animal were counted.

A further assay concerns c-fos. In words: Immunohistochemical staining of c-fos in the hippocampus, Syn^Tg mice. To be noted: EHT 12 mg/kg/day and/or caffeine 50 mg/kg/day until six months of age. It counts as in vivo.
Source text: (§2) Thy1-α-synuclein transgenic mice (Syn^Tg) on BDF1 background overexpressing human wild-type α-synuclein under the control of the Thy1 promoter were maintained by mating heterozygous transgenic females with WT BDF1 males (Rockenstein E, et al. (2002) Differential neuropathological alterations in transgenic mice expressing alpha-synuclein from the platelet-derived growth factor and Thy-1 promoters. J Neurosci Res 68(5):568-578). BDF1 mice (mixed C57BL/6-DBA/2) were generated every three months by mating female C57BL/6 (The Jackson Laboratory) and male DBA/2 mice (Charles River). Experiments were performed with male transgenic mice and their WT littermates. […] Wild-type littermates received regular water and control chow. […] At two months of age, mice were inoculated with α-Syn PFF unilaterally in the striatum. These treatments continued throughout the experiment until animals were sacrificed. Mice were weighed and their food and water intake was quantified weekly. […]
as §1

The subject of another assay is MAP2. Nature of the assay: Immunofluorescence staining of MAP2 in the cortex, Syn^Tg mice. It counts as in vivo. To be noted: EHT 12 mg/kg/day and/or caffeine 50 mg/kg/day until six months of age.
Source text: as §2, with “weekly. Animals were housed 2-5/cage in an AAALAC approved facility in a temperature- and humidity-controlled environment under a 12-hour light/dark cycle and were maintained on a diet of lab chow and water ad libitum.” for “weekly.”

Assay [1] deals with phosphorylated α-synuclein (p-α-Syn). In words: Immunohistochemical staining of p-α-Syn, Syn^Tg mice. It counts as in vivo. To be noted: EHT 12 mg/kg/day and/or caffeine 50 mg/kg/day until six months of age, vs untreated Syn^Tg mice.
Source text: as §2, §1

For assay [2], the target named is T1, PP2A methylesterase (PME-1) (Homo sapiens, UniProt Q9Y570).
T1 sequence (Q9Y570 1-386): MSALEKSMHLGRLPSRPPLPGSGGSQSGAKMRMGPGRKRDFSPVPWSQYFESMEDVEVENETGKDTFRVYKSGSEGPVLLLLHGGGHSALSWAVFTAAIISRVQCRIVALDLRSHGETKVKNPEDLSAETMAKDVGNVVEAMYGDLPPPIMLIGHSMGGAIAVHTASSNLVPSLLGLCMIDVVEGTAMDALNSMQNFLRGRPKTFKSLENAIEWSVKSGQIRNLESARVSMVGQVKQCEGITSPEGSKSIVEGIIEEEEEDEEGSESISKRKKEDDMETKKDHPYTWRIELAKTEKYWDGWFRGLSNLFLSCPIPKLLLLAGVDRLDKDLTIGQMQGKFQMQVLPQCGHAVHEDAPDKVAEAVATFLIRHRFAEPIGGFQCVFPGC
To be noted: cited from earlier work.

The test system of assay [3] is Syn^Tg mice. Nature of the assay: Nesting behavior, Syn^Tg mice. It counts as in vivo. To be noted: EHT 12 mg/kg/day in chow and/or caffeine 50 mg/kg/day in drinking water from weaning until six months of age, vs untreated Syn^Tg mice.
Source text: as §2, with “weekly. Animals were housed 2-5/cage in an AAALAC approved facility in a temperature- and humidity-controlled environment under a 12-hour light/dark cycle and were maintained on a diet of lab chow and water ad libitum.” for “weekly.”

The subject of assay [4] is TH positive dopaminergic neurons of the substantia nigra. Nature of the assay: Nigral TH positive neuron count, α-Syn PFF inoculated WT mice. The format is in vivo. To be noted: each compound individually, PFF alone reduced neurons by 51% vs PBS.
Source text: as §2, with “weekly. Animals were housed 2-5/cage in an AAALAC approved facility in a temperature- and humidity-controlled environment under a 12-hour light/dark cycle and were maintained on a diet of lab chow and water ad libitum.” for “weekly.”

Assay [5] deals with Syn^Tg mice. Nature of the assay: Morris Water Maze, Syn^Tg mice. The format is in vivo. To be noted: EHT 12 mg/kg/day in chow and/or caffeine 50 mg/kg/day in drinking water from weaning until six months of age, vs untreated Syn^Tg mice.
Source text: as §2, with “weekly. Animals were housed 2-5/cage in an AAALAC approved facility in a temperature- and humidity-controlled environment under a 12-hour light/dark cycle and were maintained on a diet of lab chow and water ad libitum.” for “weekly.”

With `CCCCCCCCCCCCCCCCCCCC(=O)NCCc1c[nH]c2ccc(O)cc12` [EHT, eicosanoyl-5-hydroxytryptamide], the “astrocytic proliferation (GFAP) in the cortex” value in the assay on GFAP is “partially but insignificantly attenuated”. For the same compound, the “c-fos immunoreactivity in the hippocampus” value with c-fos is given as “failed to increase c-fos immunoreactivity significantly”. In the assay with MAP2, the “MAP2 in the cortex (neuritic integrity)” value is “did not improve this profile”. In addition, in assay [1], the “number of p-α-Syn immunoreactive cells, hippocampus (FIG. 2B)” value is listed as “reduced p-α-Syn positive cells”. Further, the “inhibition of the activity of the PP2A methylesterase (PME-1)” value in assay [2] is “inhibit the activity”. The nesting behavior result in the assay with Syn^Tg mice [3] is “did not improve performance”. The “prevention of the reduction of TH positive dopaminergic neurons of the substantia nigra” value in assay [4] is “did not prevent this reduction”. Besides, in the assay on Syn^Tg mice [5], the “performance on the Morris Water Maze” value is recorded as “did not improve performance”.
